Patent publication US11866458B2, “Panaxadiol glycoside derivative and preparation method and application thereof” (SUZHOU JI ER BIOLOGICAL MEDICINE CO., LTD., priority 2018, dated 2024)
Marks after values point to notes of the source that are not given here.

Assays:
[1] = system: COPD rats induced by smoke exposure; test: COPD induced by smoke exposure in rats: lung function FEV0.2/FVC; assay type: in vivo, Wistar rats; settings: for FEV2/FVC % (FEV0.2/FVC %, forced expiratory index within 200 ms): 180 days; for effect in COPD rats compared with inhaled budesonide: high dose group, oral
[2] = system: ICR mice; test: Blood glucose of caudal vein after 6 days of intragastric administration; settings: for Blood glucose: fasted, caudal vein
Protocol: The mice were intragastric administration for 6 consecutive days, fasting was started at about 8:00 in the morning on the sixth day, and blood glucose in caudal vein was measured at about 4:00 in the next day.

[3] = system: ICR mice; test: Blood routine test after 6 days of intragastric administration; settings: for WBC: 1 hour after last dose
Protocol: Mice were intragastric administration for 6 consecutive days, and sufficient blood samples were taken for blood routine test 1 hour after the last dose.

[4] = system: mouse asthma model induced by OVA; test: Asthma induced by ovalbumin in Balb/c mice: IgE level in serum by ELISA; assay type: in vivo; settings: oral
[5] = system: inflammatory cells in bronchoalveolar lavage fluid of mice; test: Determination of inflammatory cells in bronchoalveolar lavage fluid of mice (OVA asthma model); assay type: in vivo, BALB/C mice; parameters: unit not given here
Protocol: 144 6-week-old BALB/C mice (18-20 g) were divided into 24 groups: control group, placebo group, dexamethasone group (3 mg/kg) and the drug groups. There were 6 in each group. The control group was given normal saline without any treatment. The other groups were sensitized by intraperitoneal injection of OVA 20 μg and aluminum hydroxide 200 μL PBC (2 mg, prepared into emulsion). […] On day 21, 22 and 23, the therapeutic agent (i.e. 3 mg/kg dexamethasone in the positive control group and oral administration in the drug group) was given orally. From day 17 to 23, PBS was given to the control group and placebo group respectively, PBS (without OVA) was given to the control group. On day 0 and day 14, the normal saline was nebulized for 30 minutes to remove the aluminum hydroxide on day 21, 22 and 23 See in Table 2.

[6] = after inhalation; cited from earlier work
[7] = 225 mg/kg, intragastric, 6 days
[8] = Table 1-1 (1st time), 20 mg/kg, 24 hours after last OVA stimulation
[9] = 1.8 mg/kg, intragastric, 6 days
[10] = 3 mg/kg, oral (positive control)

| Structure (SMILES) | FEV2/FVC % (FEV0.2/FVC %, forced expiratory index within 200 ms) ([1]; 20 mg/kg oral) | FEV2/FVC % (FEV0.2/FVC %, forced expiratory index within 200 ms) ([1]; 40 mg/kg oral) | FEV2/FVC % (FEV0.2/FVC %, forced expiratory index within 200 ms) ([1]; 80 mg/kg oral) | effect in COPD rats compared with inhaled budesonide [1] | Concentration of IgE in serum [4, 8] | Concentration of IgE in serum ([4]; Table 1-2 (2nd time), 15 mg/kg) | Concentration of IgE in serum ([4]; Table 1-2 (2nd time), 30 mg/kg) | Concentration of IgE in serum ([4]; Table 1-2 (2nd time), 60 mg/kg) | Acidic cells in bronchoalveolar lavage fluid ([5]; 2 mg/kg, oral) | Neutral cells in bronchoalveolar lavage fluid ([5]; 2 mg/kg, oral) | lymphocyte in bronchoalveolar lavage fluid ([5]; 2 mg/kg, oral) | Acidic cells in bronchoalveolar lavage fluid ([5]; 20 mg/kg, oral) | Neutral cells in bronchoalveolar lavage fluid ([5]; 20 mg/kg, oral) | Total inflammatory cells in bronchoalveolar lavage fluid ([5]; 20 mg/kg, oral) | lymphocyte in bronchoalveolar lavage fluid ([5]; 20 mg/kg, oral) | Acidic cells in bronchoalveolar lavage fluid ([5]; 200 mg/kg, oral) | Neutral cells in bronchoalveolar lavage fluid ([5]; 200 mg/kg, oral) | Total inflammatory cells in bronchoalveolar lavage fluid ([5]; 200 mg/kg, oral) | lymphocyte in bronchoalveolar lavage fluid ([5]; 200 mg/kg, oral) | Total inflammatory cells in bronchoalveolar lavage fluid ([5]; 2 mg/kg, oral) | also measured |
| --- | --- | --- | --- | --- | --- | --- | --- | --- | --- | --- | --- | --- | --- | --- | --- | --- | --- | --- | --- | --- | --- |
| CC(C)=CCC[C@](C)(O[C@@H]1O[C@H](CO)[C@@H](O)[C@H](O)[C@H]1O)[C@H]1CC[C@]2(C)[C@@H]1[C@H](O)C[C@@H]1[C@@]3(C)CC[C@H](O)C(C)(C)[C@@H]3CC[C@]12C [CK, ginsenoside compound K, reference compound] | 61.29 ± 11.76% | 70.89 ± 10.56 % | 80.24 ± 13.73 % | superior to budesonide | 1701.85 ± 284.66 ng/mL | 1921.25 ± 160.12 ng/mL | 1676.69 ± 159.13 ng/mL | 1501.85 ± 110.68 ng/mL | 32.47 ± 20.33 | 15.24 ± 7.94 | 16.81 ± 9.88 | 16.39 ± 9.67 | 8.78 ± 5.33 | 24.87 ± 20.58 | 10.15 ± 7.34 | 13.12 ± 7.38 | 4.32 ± 3.16 | 22.38 ± 12.69 | 7.42 ± 4.53 | – | blood glucose related changes [2, 7]: no blood glucose related changes; Blood glucose [2, 7]: 3.18 ± 0.28 mmol/L; Ba % [3, 7]: 0.01 ± 0.02%; Eo % [3, 7]: 0.75 ± 0.71%; Ly % [3, 7]: 62.54 ± 30.29%; Mo % [3, 7]: 6.01 ± 8.91%; Ne % [3, 7]: 31.39 ± 2.72%; hematological related changes [3, 7]: no hematological related changes; WBC [3, 7]: 4.96 ± 2.14 10^2/mm^3 |
| CC(=O)OCC(=O)[C@@]1(O)[C@H](C)C[C@H]2[C@@H]3CCC4=CC(=O)C=C[C@]4(C)[C@@]3(F)[C@@H](O)C[C@@]21C [Dexamethasone acetate tablets, Dexamethasone acetate] | – | – | – | – | – | – | – | – | – | – | – | – | – | – | – | – | – | – | – | – | blood glucose in mice compared with blank control group ([2]; 1.8 mg/kg): increase blood glucose; Blood glucose [2, 9]: 5.78 ± 0.36 mmol/L; leukocyte count compared to blank control group ([3]; 1.8 mg/kg): decreased significantly; lymphocyte percentage compared to blank control group ([3]; 1.8 mg/kg): decreased significantly; monocyte percentage compared to blank control group ([3]; 1.8 mg/kg): increased significantly; neutrophil percentage compared to blank control group ([3]; 1.8 mg/kg): increased significantly; Ba % [3, 9]: 0.04 ± 0.03%; Eo % [3, 9]: 0.09 ± 0.02%; Ly % [3, 9]: 42.59 ± 28.17 %; Mo % [3, 9]: 12.08 ± 6.28 %; Ne % [3, 9]: 45.17 ± 16.22 %; WBC [3, 9]: 1.26 ± 0.49** 10^2/mm^3; Concentration of IgE in serum ([4]; Table 1-1 (1st time), 0.6 mg/kg, 24 hours after last OVA stimulation): 1131.05 ± 211.85 ng/mL; Concentration of IgE in serum ([4]; Table 1-2 (2nd time), 0.6 mg/kg): 1367.07 ± 103.80 ng/mL; Acidic cells in bronchoalveolar lavage fluid [5, 10]: 7.49 ± 5.25; Neutral cells in bronchoalveolar lavage fluid [5, 10]: 9.64 ± 5.16; Total inflammatory cells in bronchoalveolar lavage fluid [5, 10]: 36.12 ± 14.89; lymphocyte in bronchoalveolar lavage fluid [5, 10]: 8.46 ± 5.73 |
| CC(C)=CCC[C@](C)(O[C@@H]1OC(CO)[C@H](O)[C@H](O)C1O)C1CC[C@]2(C)C1C(=O)CC1[C@@]3(C)CC[C@H](O)C(C)(C)C3CC[C@]12C (stereo partly drawn) [IC, 3p-hydroxyl-20(S)—O-β-D-galactopyranosyl dammarane-24-ene-12-one] | 65.45 ± 14.17% | 76.64 ± 7.98 % | 83.15 ± 8.42 % | superior to budesonide | 975.82 ± 260.32 ng/mL | 1908.70 ± 221.74 ng/mL | 1738.93 ± 124.22 ng/mL | 1575.92 ± 148.33 ng/mL | 31.51 ± 16.14 | 13.29 ± 7.12 | 9.30 ± 6.85 | 18.44 ± 7.78 | 8.16 ± 5.03 | 32.95 ± 21.07 | 6.49 ± 5.28 | 8.72 ± 3.31 | 5.17 ± 3.19 | 18.25 ± 9.48 | 3.77 ± 2.81 | 50.77 ± 32.49 | – |
| CC(C)=CCC[C@](C)(O[C@H]1OC(CO)[C@@H](O)[C@H](O)C1O)C1CC[C@]2(C)C1C(=O)CC1[C@@]3(C)CC[C@H](O)C(C)(C)C3CC[C@]12C (stereo partly drawn) [ID, 3β-hydroxyl-20(S)—O-α-D-mannopyranosyl dammarane-24-ene-12-one] | 66.28 ± 13.54% | 75.23 ± 10.71 % | 86.34 ± 8.60 % | superior to budesonide | 1336.96 ± 211.85 ng/mL | 1571.67 ± 134.04 ng/mL | 1427.83 ± 164.28 ng/mL | 1264.95 ± 127.60 ng/mL | 34.15 ± 18.88 | 13.18 ± 7.76 | 14.38 ± 8.71 | 15.17 ± 8.34 | 6.26 ± 4.73 | 29.46 ± 13.56 | 8.92 ± 6.89 | 6.79 ± 3.87 | 4.39 ± 3.13 | 13.81 ± 6.76 | 4.16 ± 317 | 46.39 ± 22.74 | content of IgE in mice serum (conclusion in words) ([4]; model of mouse asthma induced by OVA, samples): significantly reduce; therapeutic effect on bronchial asthma induced by OVA ([4]; mouse): obvious therapeutic effect |
| CC(C)=CCC[C@](C)(O[C@@H]1OC(CO)[C@@H](O)[C@H](O)C1O)C1CC[C@]2(C)C1/C(=N\O)CC1[C@@]3(C)CC/C(=N\O)C(C)(C)C3CC[C@]12C (stereo partly drawn) [IVA, 20(S)—O-β-D-glucopyranosyl dammarane-3,12-hydroxyl imino-24-ene-12-one] | 66.25 ± 11.49% | 75.98 ± 9.26 % | 88.33 ± 12.49 % | superior to budesonide | 1358.27 ± 248.70 ng/mL | 2026.13 ± 273.15 ng/mL | 1927.60 ± 151.61 ng/mL | 1723.86 ± 167.59 ng/mL | 29.09 ± 4.83 | 9.15 ± 5.68 | 15.35 ± 9.23 | 15.83 ± 2.88 | 7.38 ± 3.09 | 32.46 ± 17.21 | 5.24 ± 3.34 | 4.45 ± 2.14 | 6.17 ± 4.09 | 14.69 ± 5.77 | 4.19 ± 3.48 | – | – |
| CC(C)C(=O)OCC(=O)[C@@]12O[C@H](C3CCCCC3)O[C@@H]1C[C@H]1[C@@H]3CCC4=CC(=O)C=C[C@]4(C)[C@H]3[C@@H](O)C[C@@]12C [ciclesonide] | – | – | – | – | – | – | – | – | – | – | – | – | – | – | – | – | – | – | – | – | bioavailability in vivo [6]: less than 1% |
